Data: ChEMBL document CHEMBL1201862, “PubChem BioAssay data set” (2004)
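All cell lines were grown in 96-well plates and treated with compound for 48 hours. GI50 is the concentration that inhibits growth by half.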 Activity calls are given as the source filed them. No stated cut-off is given here; in the data, active = GI50 up to about 1.1 µM and inactive = higher.

Experiments:
Test in all cases: NCI-60 cell line screen, 48 h
[1] = system: SW-620
[2] = system: MDA-MB-435
[3] = system: COLO 205
[4] = system: K562
[5] = system: SK-OV-3
[6] = system: OVCAR-4
[7] = system: CAKI-1
[8] = system: M14
[9] = system: KM12
[10] = system: OVCAR-3
[11] = system: T47D
[12] = system: UACC-62
[13] = system: MDA-N
[14] = system: SR
[15] = system: SK-MEL-28
[16] = system: NCI-H522
[17] = system: MDA-MB-231
[18] = system: UACC-257
[19] = system: SF-539
[20] = system: RPMI-8226

Measured: GI50

Oc1ccc(-c2cn3cc(C(F)(F)F)ccc3n2)cc1
inactive: [1] 75.5 µM | [2] 41.2 µM | [3] 45.2 µM | [4] 35.2 µM | [5] > 100 µM | [6] 55.7 µM | [7] 60.1 µM | [8] 51.3 µM | [9] 43.3 µM | [10] 41.3 µM | [11] 18.3 µM | [12] 31.7 µM | [13] 43.7 µM | [14] 26.2 µM | [15] > 100 µM | [16] 17.3 µM | [17] > 100 µM | [18] 29.6 µM

c1ccc2c(c1)SCCCSCCCS2
inactive: [1] > 100 µM | [2] > 100 µM | [3] 74.5 µM | [4] > 100 µM | [5] > 100 µM | [6] 76 µM | [8] > 100 µM | [9] > 100 µM | [10] > 100 µM | [11] > 100 µM | [12] > 100 µM | [13] > 100 µM | [19] > 100 µM | [14] 50.5 µM | [15] > 100 µM | [16] > 100 µM | [17] 65.3 µM | [18] > 100 µM

COP(=O)(/C=C/C(NC(=O)C(Cl)(Cl)Cl)c1ccccc1)OC (stereo not drawn)
inactive: [1] > 100 µM | [2] > 100 µM | [3] > 100 µM | [4] > 100 µM | [5] > 100 µM | [6] > 100 µM | [7] > 100 µM | [8] > 100 µM | [9] > 100 µM | [10] > 100 µM | [11] > 100 µM | [12] > 100 µM | [13] > 100 µM | [20] > 100 µM | [15] > 100 µM | [16] > 100 µM | [17] > 100 µM | [18] > 100 µM

CC(=O)OC12c3ccccc3C(c3ccccc31)C1C(=O)N(N=C(C)C)C(=O)C12 (stereo not drawn)
inactive: [1] > 100 µM | [3] > 100 µM | [4] > 100 µM | [5] > 100 µM | [6] > 100 µM | [7] > 100 µM | [8] > 100 µM | [9] > 100 µM | [10] > 100 µM | [11] 70.8 µM | [12] > 100 µM | [13] > 100 µM | [20] > 100 µM | [19] > 100 µM | [14] > 100 µM | [15] > 100 µM | [17] > 100 µM | [18] > 100 µM

CC(=O)/C(=C/N1CC(=O)NC1=S)C(=O)Nc1ccccc1C
inactive: [1] > 100 µM | [2] > 100 µM | [3] > 100 µM | [5] > 100 µM | [6] > 100 µM | [7] > 100 µM | [8] > 100 µM | [9] > 100 µM | [10] > 100 µM | [11] > 100 µM | [13] > 100 µM | [19] > 100 µM | [15] > 100 µM | [17] > 100 µM | [18] > 100 µM

Cc1c(O)c(C)c2c(C)cn(C(=O)C(C)(C)C)c2c1C
inactive: [1] 29.5 µM | [2] 16.5 µM | [3] 16.6 µM | [4] 24 µM | [5] 22.2 µM | [6] 12.6 µM | [8] 16.7 µM | [9] 14 µM | [10] 43.4 µM | [11] 23.5 µM | [12] 14.7 µM | [13] 21.2 µM | [20] 29.6 µM | [19] 16.4 µM | [15] 15.3 µM | [16] 23.7 µM | [17] 15.2 µM

O=C(/C=C/c1ccccc1)CCC1C(=O)NC(=O)NC1=O
inactive: [1] > 100 µM | [2] > 100 µM | [3] > 100 µM | [4] 97.9 µM | [5] > 100 µM | [6] > 100 µM | [7] > 100 µM | [8] > 100 µM | [9] > 100 µM | [10] > 100 µM | [11] > 100 µM | [12] > 100 µM | [13] > 100 µM | [20] 43.4 µM | [19] > 100 µM | [15] > 100 µM | [16] > 100 µM | [17] > 100 µM | [18] > 100 µM

CC(=N/NC(=S)N1CCCCC1)/C(C)=N\NC(=S)N1CCCCC1
inactive: [1] 2.14 µM | [2] 1.87 µM | [3] 1.95 µM | [4] 2.25 µM | [5] 1.83 µM | [6] 1.74 µM | [7] 1.71 µM | [8] 2.19 µM | [9] 1.82 µM | [10] 1.74 µM | [11] 1.54 µM | [12] 1.35 µM | [13] 2.47 µM | [20] 2.19 µM | [19] 2.35 µM | [15] 2.08 µM | [16] 2.09 µM | [17] 2 µM | [18] 1.87 µM

NC12CC3C4CC5(N)CC3C(C1)C(C5)C4C2
inactive: [1] > 100 µM | [2] > 100 µM | [3] > 100 µM | [4] > 100 µM | [5] > 100 µM | [6] > 100 µM | [7] > 100 µM | [8] > 100 µM | [9] > 100 µM | [10] > 100 µM | [11] > 100 µM | [12] > 100 µM | [13] > 100 µM | [15] > 100 µM | [16] > 100 µM | [17] > 100 µM | [18] > 100 µM

CCCCc1c2c(nc3c1CCCC3O)CCCC2 (stereo not drawn)
inactive: [1] > 100 µM | [2] > 100 µM | [3] > 100 µM | [4] 84.3 µM | [5] > 100 µM | [6] > 100 µM | [7] > 100 µM | [8] > 100 µM | [9] > 100 µM | [10] 71.8 µM | [12] > 100 µM | [13] > 100 µM | [20] > 100 µM | [19] > 100 µM | [14] 5.11 µM | [16] > 100 µM | [17] > 100 µM | [18] > 100 µM

COC(=O)c1c(C)cccc1C1CN=NC12Cc1cccc(C)c1C2=O (stereo not drawn)
inactive: [1] 43.2 µM | [2] 31.1 µM | [3] 42.7 µM | [4] 25.9 µM | [6] 23.9 µM | [7] 37.7 µM | [8] 10.4 µM | [9] 31.7 µM | [11] 24 µM | [12] 26.9 µM | [13] 33.6 µM | [20] 17.2 µM | [19] 22.8 µM | [14] 26.7 µM | [15] 29.6 µM | [16] 15.9 µM | [18] 19.6 µM

CC(C)(C)OC(=O)N1NC(c2ccccc2)CC1c1ccccc1 (stereo not drawn)
inactive: [1] 45 µM | [2] 24.3 µM | [3] 20 µM | [4] 31.7 µM | [5] 37.6 µM | [7] 35 µM | [8] 16.3 µM | [9] 20.7 µM | [10] 34.8 µM | [11] 13.5 µM | [12] 20.6 µM | [13] 42.6 µM | [20] 35.6 µM | [19] 42.5 µM | [14] 27.2 µM | [16] 31.6 µM | [18] 43.7 µM

Cc1ccc(-c2n[nH]c(=O)[nH]2)cc1[N+](=O)[O-]
inactive: [1] > 100 µM | [2] > 100 µM | [3] > 100 µM | [4] > 100 µM | [6] > 100 µM | [7] > 100 µM | [8] > 100 µM | [9] > 100 µM | [10] > 100 µM | [11] > 100 µM | [12] > 100 µM | [13] > 100 µM | [20] > 100 µM | [19] > 100 µM | [14] > 100 µM | [15] > 100 µM | [16] > 100 µM | [18] > 100 µM

COC(=O)C1C(=O)CC(C)(O)C(C(=O)OC)C1c1ccc(N(C)C)cc1 (stereo not drawn)
inactive: [1] > 100 µM | [2] > 100 µM | [3] > 100 µM | [4] > 100 µM | [6] > 100 µM | [7] > 100 µM | [9] > 100 µM | [10] > 100 µM | [11] > 100 µM | [12] > 100 µM | [13] > 100 µM | [14] > 100 µM | [15] > 100 µM | [16] > 100 µM | [17] > 100 µM | [18] > 100 µM

Cn1c(=O)cc(NNc2ccc(Br)cc2)[nH]c1=O
inactive: [1] 4.5 µM | [2] 12.4 µM | [3] 2.58 µM | [4] 1.17 µM | [6] 16 µM | [8] 15.5 µM | [9] 2.24 µM | [10] 3.99 µM | [13] 14.7 µM | [20] 6 µM | [19] 3.31 µM | [14] 3.43 µM | [15] 17.3 µM | [17] 14.6 µM | [18] 15.3 µM

O=C(NCc1ccccc1)c1nn[nH]c1O
inactive: [1] > 100 µM | [2] > 100 µM | [3] > 100 µM | [4] > 100 µM | [5] > 100 µM | [6] > 100 µM | [7] > 100 µM | [8] > 100 µM | [9] > 100 µM | [10] > 100 µM | [11] > 100 µM | [12] > 100 µM | [13] > 100 µM | [20] > 100 µM | [15] > 100 µM | [16] > 100 µM | [17] > 100 µM | [18] > 100 µM
